Test results from patent publication US20040023945A1, “CYCLIC AMP-SPECIFIC PHOSPHODIESTERASE INHIBITORS” (ICOS Corporation, priority 1999, published 2004).
Where two headings read alike, the source gives them in different places. Blank lines part the entries; values can stand above or below the compound they belong to.

Key:
mouse = test: Subjective assessment of mouse immobility (CNS side effects); type: in vivo; settings: for CNS Side Effects: subjective assessment of mouse immobility, 60 minutes
recombinant human PDE4 = test: Inhibition of recombinant human PDE4 (cAMP hydrolysis); settings: read-out: PDE4 IC50
[1] = tested on: serum TNFα levels in LPS-injected mice; test: Inhibition of serum TNFα levels in LPS-injected mice (Mouse/TNFα ED50); type: in vivo; settings: for ED50: Mus musculus
Experimental: In order to assess the ability of a compound to reduce serum TNFα levels in mammals, the following protocol was employed. […] Accordingly, in vivo efficacy of a PDE4 reducing compound was shown by dosing with compound and measuring reduction of serum TNFα levels in LPS-injected mice. Female C3H mice, 20-25 gm body weight, were fasted overnight and dosed intraperitoneally with test compound in appropriate vehicle 60 minutes before LPS injection. Five μg of LPS was then injected intraperitoneally into the mice. Ninety minutes after LPS injection, mice were bled from the heart. Blood was allowed to clot overnight at 4° C. Samples were centrifuged for 10 minutes in a microcentrifuge and the serum removed and stored at −20° C. until analysis. Serum levels of TNFα were subsequently measured using a commercially available ELISA kit (Genzyme) following the protocol enclosed in the kit. The percent of inhibition of serum TNFα levels caused by the compound was determined relative to serum TNFα levels in control mice receiving vehicle alone. […]

[2] = tested on: human peripheral blood lymphocytes; test: Lipopolysaccharide-stimulated TNFα release from human peripheral blood lymphocytes; type: cell-based
Experimental: The compounds of structural formula (II) also were tested for an ability to reduce TNFα secretion in human peripheral blood lymphocytes. The ability to reduce TNFα secretion is related to the EC50 values (i.e., the effective concentration of the compound capable of inhibiting 50% of the total TNFα).
To assess the ability of a compound to reduce TNFα secretion in human peripheral blood lymphocytes (PBL), the following tests were performed.
Heparinized blood (approximately 30 mL) drawn from human volunteers was mixed 1:1 with Dulbecco's modified phosphate-buffered saline. This mixture was mixed 1:1 with HISTOPAQUE® and centrifuged at 1,500 rpm at room temperature without braking in the swinging bucket of a Beckman model TJ6 centrifuge. Erythrocytes were centrifuged to the bottom of the tubes, and serum remained at the surface of the tubes. A layer containing lymphocytes sedimented between the serum and HISTOPAQUE® layers, and was removed by aspiration to a fresh tube. The cells were quantified and adjusted to 3×10^6 cells/mL and a 100 μL aliquot is placed into the wells of a 96 well plate. Test compounds and RPMI media (Gibco/BRL Life Sciences) are added to each of the wells 15 minutes prior to addition of bacterial LPS ([…]). The mixture was allowed to incubate for 20 hours at 37° C. in a humidified chamber. The cells then were separated by centrifuging at 800 rpm for 5 minutes at room temperature. An aliquot of 180 μL of supernatant was transferred to a new plate for determination of TNFα concentration. TNFα protein in the cell supernatant fluids was measured using a commercially available enzyme-linked immunosorbent assay (ELISA) (CYTOSCREEN® Immunoassay Kit from Biosource International).
The cell-based assay provided the following results for various pyrrolidine compounds of the present invention. The EC50 values (i.e., effective concentration of the compound capable of inhibiting 50% of the total TNFα) illustrate the ability of the present compounds to inhibit LPS-stimulated TNFα release from human PBL.

[3] = Mouse locomotor activity assay (decrease in spontaneous mobility); settings: female, Balb/c, in vivo
Experimental: The purpose of this study was to determine the efficacy of PDE4 inhibitors in vivo in an LPS mouse model together with a determination with respect to central nervous system (CNS) side-effects manifested by a decrease in spontaneous mobility.
The test animals were female Balb/c mice, having an average weight of about 20 g. The PDE4 inhibitors, formulated in 30% Cremophor® EL, were administered via intraperitoneal (i.p.) injections at doses of 0.1, 1.0, 10.0, and 100 mg/kg. Individual dose volumes (about 150 μL) were adjusted based on the body weights measured. One hour later, 5 mg/kg LPS in a final volume of 200 μL was injected via the tail vein to each animal. Ninety minutes following the LPS treatment, the animals were bled and serum samples were collected before being stored at −70° C. until assayed.
Movement of the X-Y plane, or rearing up on the hind legs, was quantified by counting the number of “light-beam” crosses per unit of time. A decrease in the number of activity events is directly proportional to the mobility or immobilization of the animal. The quantitative scoring correlated well with the subjective measurements described above.

human recombinant PDE4B = molecular target: T1, human recombinant PDE4B (Homo sapiens, UniProt Q07343); test: Inhibition of human recombinant PDE4B; type: biochemical; settings: read-out: PDE4B IC50
T1 construct: made in house; host or cells: Saccharomyces cerevisiae strain YI23 harboring HDUN2.32

ferret = test: Emetic modeling in the ferret following oral and intravenous dosing; type: in vivo, Mustela putorius furo
Experimental: This study was conducted to investigate the emetogenic properties of PDE4 inhibitors in vivo. The ferret previously has been established as a valuable tool for assessing emesis following exposure to test compounds. […] Therefore, lack of and/or decrease in emetic potential of test compounds in ferrets predicts a favorable nonemetic effect in humans. Emesis is a complex physiological response to noxious agents that can be intiated peripherally or centrally.
The test animals were adult, castrated, and descented male ferrets (species=Mustela putorius furo, Strain=Sable) ranging in weight from about 1 to 1.5 kg. The tests were performed in quadruplicate on animals that were naive to PDE4 inhibitors. The PDE4 inhibitors were formulated in 10% Polyoxyl-35 castor oil (CREMOPHOR® EL, available from BASF Corporation, Parsippany, N.J.) in phosphate buffered saline (PBS), and were administered via i.v. injections into an indwelling catheter surgically positioned in the right external jugular vein at a rate of 0.66 mL per kg body weight. PDE4 inhibitors for oral consumption were formulated in 30% CREMOPHOR® EL in PBS, and administered by intubating animals with a 16-gauge feeding needle into the stomach. The animals received the PDE4 inhibitors in a volume of 1.33 mL per kg body weight.
All animals were fasted for 8 to 12 hours prior to administration of PDE4 inhibitors. Following administration of a PDE4 inhibitor, emetic and behavioral responses were quantified for three hours post dosing. The total number of emetic responses and vomiting episodes were quantified during the observation interval. In addition, latency time to first emetic episode, duration of emesis episodes, and gross behavioral changes including ataxia, profuse and viscous salivation, mouth clawing, hyperventilation, backward walking, flattened body posture, hyperactivity, lip licking, and general appearance were recorded.
For comparative purposes, the emetogenic effect of Samples 66 and 69 were tested intravenously at 1.0, 2.5, 5.0, and 10 mg/kg and orally at 2.5, 10, 17, and 25 mg/kg.

[4] = stereoisomer comparison table, read-out: Mouse/TNFα ED50
[5] = LPS-stimulated TNFα release from human PBL, read-out: PBL/TNFα EC50
[6] = intraperitoneal, read-out: Mouse Inhibition of Spontaneous Mobility ED50
[7] = Homo sapiens, Lymphocyte, read-out: Cell based EC50
[8] = read-out: Mouse LPS Challenge ED50
[9] = ip, read-out: ED50, effective dose that decreases spontaneous mobility 50% of control
[10] = Homo sapiens, Lymphocyte, LPS-stimulated TNFα release from human PBL, read-out: PBL/TNFα EC50

T1 sequence (Q07343 whole entry): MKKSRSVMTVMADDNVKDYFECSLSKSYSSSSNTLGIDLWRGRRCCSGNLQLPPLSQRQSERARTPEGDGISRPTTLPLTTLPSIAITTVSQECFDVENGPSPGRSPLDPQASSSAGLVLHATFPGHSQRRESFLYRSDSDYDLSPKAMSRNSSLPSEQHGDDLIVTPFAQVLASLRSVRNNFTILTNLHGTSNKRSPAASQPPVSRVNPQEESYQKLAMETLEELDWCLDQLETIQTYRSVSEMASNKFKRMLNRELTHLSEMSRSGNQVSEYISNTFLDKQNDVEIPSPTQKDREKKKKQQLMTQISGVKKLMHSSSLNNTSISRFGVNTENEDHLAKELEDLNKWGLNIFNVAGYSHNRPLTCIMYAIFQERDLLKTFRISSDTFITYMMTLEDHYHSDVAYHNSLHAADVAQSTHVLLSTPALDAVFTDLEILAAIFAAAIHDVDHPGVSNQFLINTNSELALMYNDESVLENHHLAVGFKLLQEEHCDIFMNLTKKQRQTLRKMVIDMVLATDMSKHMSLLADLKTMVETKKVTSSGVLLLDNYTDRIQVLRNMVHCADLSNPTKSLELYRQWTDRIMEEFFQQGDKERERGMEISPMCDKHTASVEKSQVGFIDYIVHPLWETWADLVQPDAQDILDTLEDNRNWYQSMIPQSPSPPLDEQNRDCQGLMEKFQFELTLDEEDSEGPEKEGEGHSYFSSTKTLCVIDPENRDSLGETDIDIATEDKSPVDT

- IC50 (recombinant human PDE4; stereoisomer comparison table): 61.1 nM
SMILES: COC(=O)N1CC(c2ccc(OC)c(OC3CCCC3)c2)[C@@](C)([C@@H](C)O)C1 (some centres unmarked) [(B)]
- CNS Side Effects (mouse; i.p. 1, 10 and 100 mg/kg): No effect
- ED50 [1, 4]: 12 mg/kg

- IC50 (recombinant human PDE4; human recombinant PDE4): 6.8 nM
- IC50 (recombinant human PDE4; stereoisomer comparison table): 6.8 nM
- EC50 [2, 5]: 10.2 nM
SMILES: COC(=O)N1C[C@@H](c2ccc(OC)c(OC3Cc4ccccc4C3)c2)[C@](C)(C(C)O)C1 (some centres unmarked) [Sample No. 62]
- CNS Side Effects (mouse; i.p. 1, 10 and 100 mg/kg): Little to no effect (at 50 mg/kg)
- Mouse/TNFα ED50 ([1]; stereoisomer comparison table): 0.08 mg/kg

- ED50 [3, 6]: 100 mg/kg
- IC50 (human recombinant PDE4B): 15 nM
- EC50 [2, 7]: 6 nM
SMILES: COc1ccc([C@@H]2CN(C(=O)[C@@H](O)Cc3ccccc3)C[C@@]2(C)[C@@H](C)O)cc1OCC#Cc1ccccc1 [Example 268, (S)-2-Hydroxy-1-{(3S,4S)-3-((R)-1-hydroxyethyl)-4-[4-methoxy-3-(3-phenylprop-2-ynyloxy)phenyl]-3-methylpyrrolidin-1-yl}-3-phenylpropan-1-one]
- ED50 [1, 8]: 5 mg/kg

- ED50 [3, 9]: > 50 mg/kg
- EC50 [2, 10]: 603 nM
SMILES: COc1ccc([C@@H]2CN(C(=O)[C@H](C)O)C[C@@]2(C)[C@@H](C)O)cc1OC1CCCC1 [Example 67, 1-[3-((1R)-1-Hydroxyethyl)(3S,4S)-4-(3-cyclopentyloxy-4-methoxyphenyl)-3-methylpyrrolidinyl](2S)-2-hydroxypropan-1-one]

- ED50 [3, 9]: 83 mg/kg
- EC50 [2, 10]: 35 nM
SMILES: COc1ccc([C@@H]2CN(c3ccccn3)C[C@@]2(C)[C@@H](C)O)cc1OC1Cc2ccccc2C1 [Example 31, (1R)-1-[(3S,4S)-4-(3-Indan-2-yloxy-4-methoxyphenyl)-3-methyl-1-(2-pyridyl)pyrrolidin-3-yl]ethan-1-ol]
- ED50 ([1]; mouse, i.p., LPS challenge, read-out: Mouse/TNFα ED50): 3 mg/kg

- IC50 (human recombinant PDE4B): 20 nM
- EC50 [2, 7]: 30 nM
SMILES: COc1ccc([C@@H]2CN(C(=O)[C@H](N)CO)C[C@@]2(C)[C@@H](C)O)cc1OCC1CC1.Cl [Example 109, hydrochloride]

- ED50 [3, 6]: 100 mg/kg
SMILES: COc1ccc([C@@H]2CN(C(=O)[C@H](N)CO)C[C@@]2(C)[C@@H](C)O)cc1OCC1CC1.Cl [Example 109]
- ED50 [1, 8]: 5 mg/kg

- EC50 [2, 10]: 630 nM
SMILES: COc1ccc([C@@H]2CN(C(=O)[C@@H](OC(C)=O)C3CCCCC3)C[C@@]2(C)[C@@H](C)O)cc1OC1CCCC1 [Example 88, 2-[3-((1R)1-Hydroxyethyl)(3S,4S)-4-(3-cyclopentyloxy-4-methoxyphenyl)-3-methylpyrrolidinyl](1S)-1-cyclohexyl-2-oxoethyl acetate]

SMILES: COC(=O)N1C[C@H](c2ccc(OC)c(OC3CCCC3)c2)[C@@](C)([C@H](C)O)C1 [(A)]
- mouse mobility assessment (footnote statement) (mouse; i.p. 1, 10 and 100 mg/kg, 60 minutes time frame): mice were affected at all doses
- outcome at the highest dose (mouse; mouse, i.p., highest dose (100 mg/kg)): mice became moribund and died within 10 minutes of treatment
- CNS Side Effects (mouse; i.p. 1, 10 and 100 mg/kg): Severe
- IC50 (recombinant human PDE4; human recombinant PDE4): 13.3 nM
- IC50 (recombinant human PDE4; stereoisomer comparison table): 13.3 nM
- EC50 [2, 10]: 57 nM
- ED50 [1, 4]: 7 mg/kg
- Number of Emetic Events: Retches (ferret; intravenous 1.0 mg/kg): 0
- Number of Emetic Events: Total (ferret; intravenous 1.0 mg/kg): 0
- Number of Emetic Events: Vomits (ferret; intravenous 1.0 mg/kg): 0
- Responders (ferret; intravenous 1.0 mg/kg): 0/4
- Number of Emetic Events: Retches (ferret; intravenous 2.5 mg/kg): 3
- Number of Emetic Events: Total (ferret; intravenous 2.5 mg/kg): 3
- Number of Emetic Events: Vomits (ferret; intravenous 2.5 mg/kg): 0
- Responders (ferret; intravenous 2.5 mg/kg): 1/4
- Number of Emetic Events: Retches (ferret; intravenous 5.0 mg/kg): 300
- Number of Emetic Events: Total (ferret; intravenous 5.0 mg/kg): 300
- Number of Emetic Events: Vomits (ferret; intravenous 5.0 mg/kg): 0
- Responders (ferret; intravenous 5.0 mg/kg): 2/2
- outcome after intravenous dosing (ferret; intravenous 5 mg/kg body weight): one of the tested animals died almost immediately after dosing
- Number of Emetic Events: Retches (ferret; oral 2.5 mg/kg): 0
- Number of Emetic Events: Total (ferret; oral 2.5 mg/kg): 0
- Number of Emetic Events: Vomits (ferret; oral 2.5 mg/kg): 0
- Responders (ferret; oral 2.5 mg/kg): 0/4
- Number of Emetic Events: Retches (ferret; oral 10.0 mg/kg): 27
- Number of Emetic Events: Total (ferret; oral 10.0 mg/kg): 32
- Number of Emetic Events: Vomits (ferret; oral 10.0 mg/kg): 5
- Responders (ferret; oral 10.0 mg/kg): 3/4
- Number of Emetic Events: Retches (ferret; oral 17.0 mg/kg): 51
- Number of Emetic Events: Total (ferret; oral 17.0 mg/kg): 58
- Number of Emetic Events: Vomits (ferret; oral 17.0 mg/kg): 7
- Responders (ferret; oral 17.0 mg/kg): 3/4
- Number of Emetic Events: Retches (ferret; oral 25.0 mg/kg): 88
- Number of Emetic Events: Total (ferret; oral 25.0 mg/kg): 114
- Number of Emetic Events: Vomits (ferret; oral 25.0 mg/kg): 26
- Responders (ferret; oral 25.0 mg/kg): 4/4
- emetic response, comparison of compounds (ferret; oral or intravenous): much stronger emetic response than compound (C)

- EC50 [2, 10]: 181 nM
SMILES: COc1ccc([C@@H]2CN(C(=O)CO)C[C@@]2(C)[C@@H](C)O)cc1OC1CCCC1 [Example 65, 1-(3-((1R)-1-Hydroxyethyl)(3S,4S)-4-(3-cyclopentyloxy-4-methoxyphenyl)-3-methylpyrrolidinyl]-2-hydroxyethan-1-one]

- IC50 (recombinant human PDE4; stereoisomer comparison table): 515 nM
SMILES: COC(=O)N1CC(c2ccc(OC)c(OC3CCCC3)c2)[C@](C)([C@H](C)O)C1 (some centres unmarked) [(D)]
- CNS Side Effects (mouse; i.p. 1, 10 and 100 mg/kg): No effect

- IC50 (recombinant human PDE4; human recombinant PDE4): 18.3 nM
- IC50 (recombinant human PDE4; stereoisomer comparison table): 18.3 nM
- EC50 [2, 5]: 57.8 nM
SMILES: COC(=O)N1C[C@@H](c2ccc(OC)c(OC3Cc4ccccc4C3)c2)[C@](C)(C(C)O)C1 (some centres unmarked) [Sample No. 61]
- CNS Side Effects (mouse; i.p. 1, 10 and 100 mg/kg): Little to no effect (at 50 mg/kg)
- Mouse/TNFα ED50 ([1]; stereoisomer comparison table): 0.2 mg/kg

- EC50 [2, 10]: 51 nM
SMILES: COc1ccc([C@@H]2CN(C(=O)C(=O)NCc3ccccc3)C[C@@]2(C)[C@@H](C)O)cc1OC1CCCC1 [Example 83, 2-[3-((1R)-1-Hydroxyethyl)(3S,4S)-4-(3-cyclopentyloxy-4-methoxyphenyl)-3-methylpyrrolidinyl]-2-oxo-N-benzylacetamide]
